Reference: PMC4729198 (ACS chemical biology, 2015)
≈ marks a conversion by molar mass, not a printed value. Where two headings read alike, the source gives them in different places.

Assays:
MtbAPSR [1] = target: T1, MtbAPSR (Mycobacterium tuberculosis, UniProt P9WIK3); assay: biochemical; parameters: species or system M. tuberculosis
LUM assay counterscreen = type: biochemical; settings: LOPAC pilot screen, dose-response
[2] = test system: Non replicating WT Mtb H37Rv; assay: Bactericidal activity against nonreplicating; type: cell-based; settings: Mycobacterium tuberculosis
[3] = test system: Non replicating Msm mc2:155 ΔcysH; type: cell-based, Mycobacterium smegmatis; settings: 2 mM methionine; Alamar Blue assay
VERO cells = assay: Cytotoxicity in VERO cells; type: cell-based
MtbAPSR [4] = target: T1, MtbAPSR; assay: biochemical; type: binding, M. tuberculosis
RecA = settings: qRT-PCR, normalized to housekeeping gene SigA
[5] = HRP-PR H2O2 detection counterscreen for redox-cycling compounds; type: biochemical; settings: 0.8 mM DTT

T1 sequence (P9WIK3 whole entry): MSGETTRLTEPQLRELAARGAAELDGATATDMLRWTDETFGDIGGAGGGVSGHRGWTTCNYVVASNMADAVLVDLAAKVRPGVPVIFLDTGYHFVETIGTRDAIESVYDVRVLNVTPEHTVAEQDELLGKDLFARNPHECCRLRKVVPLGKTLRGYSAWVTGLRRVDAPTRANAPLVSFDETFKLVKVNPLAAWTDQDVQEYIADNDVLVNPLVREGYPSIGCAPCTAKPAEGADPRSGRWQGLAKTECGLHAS

Cc1c2ccncc2c(C)c2c1[nH]c1ccccc12 [Compound 5, ellipticine]
IC50 (MtbAPSR [1]; LUM Assay, IC50, dose-response LUM assay, Table 1): 4.2 µM | IC50 (MtbAPSR [1]; apparent IC50 in LUM assay, LOPAC pilot screen hit, dose-response, 384-well): 11.1 µM | activity in LUM counterscreen (LUM assay counterscreen): inactive | MBC ([2]; read-out: Non replicating WT Mtb H37Rv, (+) Met): 12.5 µM (≈ 3.08 µg/mL) | MBC ([2]; read-out: Non replicating WT Mtb H37Rv, (−) Met): 12.5 µM (≈ 3.08 µg/mL) | Non replicating Msm mc2:155; MBC, ΔcysH [3]: >100 µM | lethal concentration (LC90) in VERO cells (VERO cells): 63 µM | cytotoxicity fold lower compared to bactericidal activity against nonreplicating Mtb (VERO cells; VERO LC90 vs MBC): ~ 5 fold | Kd (MtbAPSR [4]): 12 µM

CO[C@@]12[C@H](COC(N)=O)C3=C(C(=O)C(C)=C(N)C3=O)N1C[C@@H]1N[C@@H]12 [mitomycin C]
upregulation of RecA (RecA): significant upregulation

Cl.N[C@@H](CCl)C(=O)O [β-Chloro-L-alanine hydrochloride, reference compound]
activity in LUM assay (MtbAPSR [1]; LOPAC pilot screen, dose-response): no activity | activity in LUM counterscreen (LUM assay counterscreen): no activity

O=C1C(SCCO)=C(SCCO)C(=O)c2ccccc21 [NSC 95397]
generation of H2O2 in HRP-PR assay [5]: showed generation of H2O2

CSc1nc(N)c2ncn([C@@H]3O[C@H](COP(=O)(O)OP(=O)(O)O)[C@@H](O)[C@H]3O)c2n1.[Na].[Na].[Na] [2-Thiomethyladenoside diphosphate trisodium, reference compound]
activity in LUM assay (MtbAPSR [1]): active | activity in LUM counterscreen (LUM assay counterscreen): active
